Experiments:
MDA-MB-231 cells [1] = assay: WST-1 proliferation / viability of MDA-MB-231 cells exposed to targeted DXR liposomes; assay type: cell-based; details: 8 or 24 hours exposure, evaluated over 3 days
Experimental: In an alternate embodiment, MDA-MB-231 cells were grown in DMEM containing 10% FBS and 1× Penicillin-Streptomycin solution. The cells were cultured at 70% confluence and plated in a 96 well plate at a density of 5×10^4 cells/well. The cells were incubated undisturbed for two days prior to any experimentation. Liposomal suspensions were UV sterilized prior to introduction to cell cultures. On the second day, the liposomal carriers containing DXR were introduced to the cultures at the EC-50 of DXR (0.01 μM21). Proliferating cells were quantified and normalized by the control using WST-1 proliferation assay.
Liposomes were incubated with DXR (17.2 mM) and DSPE-PEG-MAL (0.1 mol %) for 1 hour. The suspension was then purified using spin columns and incubated overnight with CD44 antibodies as described in the methods. Targeted liposomes were introduced to cultures of MDA-MB-231 cells and allowed to interact for 8 hours or 24 hours prior to being washed. […] Viability was analyzed over 72 hours using WST-1 as an indicator of proliferation and normalized to a media only control (e.g., as is illustrated in FIG. 8D).

MDA-MB-231 cells [2] = details: concentration at which DXR liposomal carriers were introduced; read-out: EC-50 of DXR; cited from earlier work

COc1cccc2c1C(=O)c1c(O)c3c(c(O)c1C2=O)C[C@@](O)(C(=O)CO)C[C@@H]3O[C@H]1C[C@H](N)[C@H](O)[C@H](C)O1 [DXR, doxorubicin]
cancer cell viability (result in words, FIG. 8D) (MDA-MB-231 cells [1]): demonstrated efficacy in reducing cancer cell viability
EC50 (MDA-MB-231 cells [2]): 10 nM

From US20190380964A1, “METHODS AND COMPOSITIONS FOR MAKING AND USING NANOTHERAPEUTIC DRUG DELIVERY VEHICLES” (GEORGE MASON UNIVERSITY, priority 2018, published 2019)
